Reference: patent US20230192608A1, “WATER-SOLUBLE, MODIFIED AMINO ACID DERIVATIVES FOR TREATMENT OF NEUROLOGICAL DISEASES, AND SELECTED PSYCHIATRIC DISORDERS” (Uniwersytet Jagiellonski, priority 2020, published 2023)
Marks after values point to notes of the source that are not given here.

How the values were obtained:
[1] = system: male white Swiss mice (CD-1); assay: Maximal electroshock test (MES), screening; assay type: in vivo; details: 100 mg/kg intraperitoneal, time point 0.5 h
Method: (§1) The studies were carried out on male white Swiss mice (CD-1) weighing 18-26 g. All procedures were performed in accordance with the applicable Polish and international guidelines for the ethics of animal research, after obtaining of the appropriate institutional consent. […] Screening tests were performed in groups consisted of 4 mice. All tests were performed according to the procedures described in the specialist literature: maximal electroshock test (MES) (Kamiński et al. Bioorg. Med. Chem. 2015, 23, 2548-2561; Castel-Branco et al. Pharmacol. 2009, 31, 101-106, Riban et al. Neurosci. 2002, 112, 101-111); psychomotor seizure test (6 Hz, 32 mA) (Barton et al. Epilepsy Res. 2001, 47, 217-227; Wojda et al. Epilepsy Res. 2009, 86, 163-174); subcutaneous pentylenetetrazole test (scPTZ) (Ferreri et al. Pharmacol. Biochem. Behav. 2004, 77, 85-94).

[2] = system: male white Swiss mice (CD-1); assay: Psychomotor seizure test (6 Hz, 32 mA), screening; assay type: in vivo; details: 100 mg/kg intraperitoneal, time point 0.5 h
Method: as §1

[3] = system: male white Swiss mice (CD-1); assay: Subcutaneous pentylenetetrazole test (scPTZ), screening; assay type: in vivo; details: 100 mg/kg intraperitoneal, time point 0.5 h
Method: as §1

[4] = Water solubility test at 25° C. per 1 gram of compound (European Pharmacopoeia 10.0 / Polish Pharmacopoeia XII); details: for The volume of water required for dissolution of 1 g of the substance at 25° C.: 1 g of compound, maximum volume of water used 100 mL; for Matching term (solubility in water, pharmacopoeial terminology): European Pharmacopoeia 10.0 / Polish Pharmacopoeia XII
[5] = system: male white Swiss mice (CD-1); assay: Anticonvulsant screening summarised over MES, scPTZ and 6 Hz (32 mA) models; assay type: in vivo; details: screening data of Table 3, 100 mg/kg intraperitoneal
Method: as §1
These models are recognized as the most important and widely used pharmacological tests allowing the identification of candidates for new antiepileptic drugs. […] This is crucial in situations requiring immediate intervention to stop seizures, including, e.g status epilpepticus, which is considered as a life-threatening situation.

[6] = system: male white Swiss mice (CD-1); details: model AED, comparison; cited from earlier work
[7] = system: male white Swiss mice (CD-1); details: model AED, comparison; cited from earlier work; remark: listed apart in the source

Q: For `C[C@@H](C(=O)NCc1ccccc1F)N1CCCC1=O` [Compound (2S)-4, (2S)-N-(2-fluorobenzyl)-2-(2-oxopyrrolidin-1-yl)propanamide], which “MES: number of mice protected/number of mice tested” value [1] is on record?
A: 2/4

Q: What about the “6 Hz (32 mA): number of mice protected/number of mice tested” value [2] of the same compound?
A: 2/4

Q: And the “scPTZ: number of mice protected/number of mice tested” value [3]?
A: 2/4

Q: And the “The volume of water required for dissolution of 1 g of the substance at 25° C.” value (from here on “The volume of water required”) [4]?
A: 30 mL

Q: And the “Matching term (solubility in water, pharmacopoeial terminology)” value [4]?
A: Soluble

Q: Which “MES: number of mice protected/number of mice tested” value [1] does the source give for `C[C@@H](C(=O)NCc1ccccc1F)N1C(=O)CCC1=O` [(2S)-2, reference compound] here?
A: 2/4

Q: And the “6 Hz (32 mA): number of mice protected/number of mice tested” value [2]?
A: 2/4

Q: What about the “scPTZ: number of mice protected/number of mice tested” value [3] of the same compound?
A: 2/4

Q: What about the “The volume of water required” value [4] of the same compound?
A: >100^c mL

Q: And the “Matching term (solubility in water, pharmacopoeial terminology)” value [4]?
A: Slightly soluble

Q: Which “Matching term (solubility in water, pharmacopoeial terminology)” value [4] does the source give for `CC(C(=O)NCc1ccccc1)N1C(=O)CC(N(C)C)C1=O` (stereo not shown) [Compound 5, N-benzyl-2-(3-(dimethylamino)-2,5-dioxopyrrolidin-1-yl)propanamide] here?
A: substances easily soluble in water

Q: What does the source list for `C[C@H](C(=O)NCc1ccccc1)N1CCCC1=O` [Compound (2R)-3, (2R)-N-benzyl-2-(2-oxopyrrolidin-1-yl)propanamide]?
A: MES: number of mice protected/number of mice tested [1]: 4/4; 6 Hz (32 mA): number of mice protected/number of mice tested [2]: 4/4; scPTZ: number of mice protected/number of mice tested [3]: 3/4; Anticonvulsant activity (in words) [5]: potent anticonvulsant activity; The volume of water required for dissolution of 1 g of the substance at 25° C. [4]: 25 mL; Matching term (solubility in water, pharmacopoeial terminology) [4]: Soluble

Q: For `CC(C(=O)NCc1ccccc1F)N1C(=O)CCC1=O` (racemic) [(2R,S)-2, reference compound], which “MES: number of mice protected/number of mice tested” value [1] is on record?
A: 3/4

Q: And the “6 Hz (32 mA): number of mice protected/number of mice tested” value [2]?
A: 3/4

Q: And the “scPTZ: number of mice protected/number of mice tested” value [3]?
A: 3/4

Q: What about the “The volume of water required” value [4] of the same compound?
A: >100^c mL

Q: What about the “Matching term (solubility in water, pharmacopoeial terminology)” value [4] of the same compound?
A: Slightly soluble

Q: With `CC(C(=O)NCc1ccccc1)N1CCCC1=O` (stereo not shown) [Compound 3, N-benzyl-2-(2-oxopyrrolidin-1-yl)propanamide] as the compound, how does the “Matching term (solubility in water, pharmacopoeial terminology)” value [4] read?
A: water-soluble substances

Q: For `C[C@H](C(=O)NCc1ccccc1F)N1C(=O)CCC1=O` [(2R)-2, reference compound], which “MES: number of mice protected/number of mice tested” value [1] is on record?
A: 4/4

Q: What about the “6 Hz (32 mA): number of mice protected/number of mice tested” value [2] of the same compound?
A: 4/4

Q: What about the “scPTZ: number of mice protected/number of mice tested” value [3] of the same compound?
A: 3/4

Q: And the “The volume of water required” value [4]?
A: >100^c mL

Q: What about the “Matching term (solubility in water, pharmacopoeial terminology)” value [4] of the same compound?
A: Slightly soluble

Q: With `CC[C@@H](C(N)=O)N1CCCC1=O` [levetiracetam] as the compound, how does the “Activity in MES test (in words)” value [6] read?
A: inactive

Q: What about the “Activity in scPTZ test (in words)” value [7] of the same compound?
A: inactive

Q: For `C[C@H](C(=O)NCc1ccccc1)N1C(=O)CC(N(C)C)C1=O.Cl` (stereo partly drawn) [Compound (2R)-5 × HCl, (2R)-N-benzyl-2-(3-(dimethylamino)-2,5-dioxopyrrolidin-1-yl)propanamide hydrochloride], which “Anticonvulsant activity (in words)” value [5] is on record?
A: potent anticonvulsant activity

Q: With `C[C@H](C(=O)NCc1ccccc1)N1C(=O)CCC1=O` [(2R)-1, reference compound] as the compound, how does the “MES: number of mice protected/number of mice tested” value [1] read?
A: 3/4

Q: What about the “6 Hz (32 mA): number of mice protected/number of mice tested” value [2] of the same compound?
A: 4/4

Q: What about the “scPTZ: number of mice protected/number of mice tested” value [3] of the same compound?
A: 3/4

Q: What about the “The volume of water required” value [4] of the same compound?
A: >100^c mL

Q: What about the “Matching term (solubility in water, pharmacopoeial terminology)” value [4] of the same compound?
A: Slightly soluble

Q: Which “MES: number of mice protected/number of mice tested” value [1] does the source give for `C[C@@H](C(=O)NCc1ccccc1)N1CCCC1=O` [Compound (2S)-3, (2S)-N-benzyl-2-(2-oxopyrrolidin-1-yl)propanamide] here?
A: 2/4

Q: What about the “6 Hz (32 mA): number of mice protected/number of mice tested” value [2] of the same compound?
A: 2/4

Q: And the “scPTZ: number of mice protected/number of mice tested” value [3]?
A: 2/4

Q: What about the “The volume of water required” value [4] of the same compound?
A: 25 mL

Q: What about the “Matching term (solubility in water, pharmacopoeial terminology)” value [4] of the same compound?
A: Soluble

Q: With `CC(C(=O)NCc1ccccc1)N1CCCC1=O` [Compound (2R,S)-3, (2R,S)-N-benzyl-2-(2-oxopyrrolidin-1-yl)propanamide] as the compound, how does the “MES: number of mice protected/number of mice tested” value [1] read?
A: 3/4

Q: What about the “6 Hz (32 mA): number of mice protected/number of mice tested” value [2] of the same compound?
A: 4/4

Q: And the “scPTZ: number of mice protected/number of mice tested” value [3]?
A: 2/4

Q: What about the “The volume of water required” value [4] of the same compound?
A: 25 mL

Q: And the “Matching term (solubility in water, pharmacopoeial terminology)” value [4]?
A: Soluble

Q: Which “MES: number of mice protected/number of mice tested” value [1] does the source give for `C[C@@H](C(=O)NCc1ccccc1)N1C(=O)CCC1=O` [(2S)-1, reference compound] here?
A: 1/4

Q: And the “6 Hz (32 mA): number of mice protected/number of mice tested” value [2]?
A: 4/4

Q: What about the “scPTZ: number of mice protected/number of mice tested” value [3] of the same compound?
A: 2/4

Q: And the “The volume of water required” value [4]?
A: >100^c mL

Q: What about the “Matching term (solubility in water, pharmacopoeial terminology)” value [4] of the same compound?
A: Slightly soluble

Q: What does the source list for `C[C@H](C(=O)NCc1ccccc1F)N1CCCC1=O` [Compound (2R)-4, (2R)-N-(2-fluorobenzyl)-2-(2-oxopyrrolidin-1-yl)propanamide]?
A: MES: number of mice protected/number of mice tested [1]: 4/4; 6 Hz (32 mA): number of mice protected/number of mice tested [2]: 4/4; scPTZ: number of mice protected/number of mice tested [3]: 3/4; Anticonvulsant activity (in words) [5]: potent anticonvulsant activity; The volume of water required for dissolution of 1 g of the substance at 25° C. [4]: 30 mL; Matching term (solubility in water, pharmacopoeial terminology) [4]: Soluble

Q: Which results are given for `CC(C(=O)NCc1ccccc1F)N1CCCC1=O` [(2R,S)-4, (2R,S)-N-(2-fluorobenzyl)-2-(2-oxopyrrolidin-1-yl)propanamide]?
A: MES: number of mice protected/number of mice tested [1]: 3/4; 6 Hz (32 mA): number of mice protected/number of mice tested [2]: 3/4; scPTZ: number of mice protected/number of mice tested [3]: 2/4; The volume of water required for dissolution of 1 g of the substance at 25° C. [4]: 30 mL; Matching term (solubility in water, pharmacopoeial terminology) [4]: Soluble

Q: Which “Matching term (solubility in water, pharmacopoeial terminology)” value [4] does the source give for `CC(C(=O)NCc1ccccc1F)N1C(=O)CC(N(C)C)C1=O` (stereo not shown) [Compound 6] here?
A: substances easily soluble in water

Q: Which “Anticonvulsant activity (in words)” value [5] does the source give for `C[C@H](C(=O)NCc1ccccc1F)N1C(=O)CC(N(C)C)C1=O.Cl` (stereo partly drawn) [Compound (2R)-6 × HCl, (2R)-2-(3-(dimethylamino)-2,5-dioxopyrrolidin-1-yl)-N-(2-fluorobenzyl)propanamide hydrochloride] here?
A: potent anticonvulsant activity

Q: For `CC(C(=O)NCc1ccccc1F)N1CCCC1=O` (stereo not shown) [Compound 4, N-(2-fluorobenzyl)-2-(2-oxopyrrolidin-1-yl)propanamide], which “Matching term (solubility in water, pharmacopoeial terminology)” value [4] is on record?
A: water-soluble substances

Q: With `CC(C(=O)NCc1ccccc1)N1C(=O)CCC1=O` (racemic) [(2R,S)-1, reference compound] as the compound, how does the “MES: number of mice protected/number of mice tested” value [1] read?
A: 3/4

Q: What about the “6 Hz (32 mA): number of mice protected/number of mice tested” value [2] of the same compound?
A: 3/4

Q: What about the “scPTZ: number of mice protected/number of mice tested” value [3] of the same compound?
A: 2/4

Q: What about the “The volume of water required” value [4] of the same compound?
A: >100^c mL

Q: What about the “Matching term (solubility in water, pharmacopoeial terminology)” value [4] of the same compound?
A: Slightly soluble
